Measurements: article PMC11249637, “Interaction of the Atypical Tetracyclines Chelocardin and Amidochelocardin with Renal Drug Transporters” (ACS Pharmacology & Translational Science, 2024)

Tests used:
mOct1 = target: T1, mOct1 (Mus musculus, UniProt O08966); test: Three-point uptake (substrate assessment) in mOct1-overexpressing HEK293 cells; assay type: in vitro ADME
T1 construct: expressed in transfected cells; host or cells: HEK293
T1 sequence (O08966 1-556): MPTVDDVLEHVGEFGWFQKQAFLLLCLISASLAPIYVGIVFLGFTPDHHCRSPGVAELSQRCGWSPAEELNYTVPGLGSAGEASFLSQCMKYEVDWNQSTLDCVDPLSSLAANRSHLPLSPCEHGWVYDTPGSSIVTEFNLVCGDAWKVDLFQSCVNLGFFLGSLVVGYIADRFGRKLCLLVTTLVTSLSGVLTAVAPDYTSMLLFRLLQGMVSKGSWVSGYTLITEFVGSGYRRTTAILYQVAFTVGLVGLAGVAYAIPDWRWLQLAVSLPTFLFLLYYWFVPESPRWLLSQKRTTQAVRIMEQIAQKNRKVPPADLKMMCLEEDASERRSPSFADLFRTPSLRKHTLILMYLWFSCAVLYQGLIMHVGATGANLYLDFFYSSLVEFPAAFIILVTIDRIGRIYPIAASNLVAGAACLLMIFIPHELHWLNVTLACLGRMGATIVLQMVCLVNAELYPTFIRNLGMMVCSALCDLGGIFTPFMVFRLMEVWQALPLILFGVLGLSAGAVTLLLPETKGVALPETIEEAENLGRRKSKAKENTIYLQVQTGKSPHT
Procedure: This is important to gain a better understanding of the underlying mechanisms of secretion into urine. Therefore, we assessed the amount of compound taken up by the vector and transporter cells at three different concentrations (1, 10, and 100 μM for mOat1 and mOct1; 0.1, 1, and 10 μM for mOat3) and at two different incubation periods (1 and 5 min for mOat1 and mOct1; 5 and 10 min for mOat3).
The incubation buffer contained CHD and CDCHD in a final concentration of 1, 10, and 100 μM. After 1 and 5 min, the incubation was terminated. In addition, the probe inhibitor decynium22 (50 μM) was added in one concentration to 10 μM CHD and CDCHD, respectively, and after 1 and 5 min, the incubation was stopped. Inhibition of mOct1-mediated ^3H-MPP (10 μM) uptake by 50 μM decynium22 was performed as a control experiment. After 1 min, the incubation was terminated. All experiments were conducted in triplicate.
First, a calibration curve was prepared by spiking different concentrations of CHD and CDCHD into the cell matrix. Caffeine was used as an internal standard. In addition, quality control samples (QCs) were prepared for CHD and CDCHD in a cell matrix. The following extraction procedures were used: 300 μL of acetonitrile/water (1:1) is added to the cell pellet (sample or calibration/QC sample) for 15 min at 2000 rpm on an Eppendorf MixMate vortex mixer. 10 μL of this extracted sample is used for further analysis. 10 μL of the extracted cell sample is further extracted with 25 μL of a mixture of methanol/acetonitrile (2:1) containing 12.5 ng/mL caffeine as an internal standard (on ice) for 5 min at 2000 rpm on an Eppendorf MixMate vortex mixer. Then, samples were spun down at 15,870 × g for 10 min. Supernatants were transferred to standard HPLC glass vials. Samples were analyzed using an Agilent 1290 Infinity II HPLC system coupled to an AB Sciex QTrap6500plus mass spectrometer. LC conditions were as follows: column: Agilent Zorbax Eclipse Plus C18, 50 × 2.1 mm, 1.8 μm; temperature: 30°C; injection volume: 5 μL per sample; flow rate: 700 μL/min. Samples were run under the following conditions. Solvents: A: 100% water +0.1% formic acid; solvent B: 100% acetonitrile +0.1% formic acid. The gradient for CDCHD was as follows: 99% A at 0 min, 99% A until 0.1 min, 99–90% A from 0.1 to 1.0 min, 90–50% A from 1.0 to 2.4 min, 50–35% A from 2.4 to 2.7 min, 35–0% A from 2.7 until 4.5 min, 0% A until 5.5 min, 0–99% from 5.5 to 5.7 min, 99% A until 6.0 min. The gradient for CHD was as follows: 99% A at 0 min, 99% A until 0.1 min, 99–90% A from 0.1 to 1.0 min, 90–55% A from 1.0 to 2.3 min, 55–40% A from 2.3 to 2.5 min, 40–0% A from 2.5 until 4.5 min, 0% A until 5.5 min, 0–99% from 5.5 to 5.7 min, 99% A until 6.0 min. Mass transitions are depicted in Table S2.
For statistical testing of differences in uptake ratio or for the inhibitory effect, an ordinary one-way ANOVA test was performed using GraphPad Prism 9.5.1 software. For statistical testing of difference in uptake on vector- or transporter-overexpressing cells, an ordinary two-way ANOVA test was performed using GraphPad Prism 9.5.1 software. Michaelis–Menten kinetics were determined using the Michaelis–Menten algorithm of GraphPad Prism 9.5.1 software. Image resolution was adjusted by using GIMP software.

[1] = set-up: method as in PMID 339024; conditions: phase II clinical trial, 1970s; cited from earlier work

Compound | substrate of mOct1 (in words) (mOct1) | uptake ratio (cells without vs with decynium22), mOct1 (mOct1; 10 μM compound, 50 μM decynium22, 1 and 5 min) | mOct1: Vmax (mOct1; Michaelis–Menten fit, 1, 10 and 100 μM) [nM/min] | less uptake in the presence of the specific inhibitor decynium22, mOct1 (mOct1; 10 μM compound, 50 μM decynium22, 5 min) | concentrations in urine [1] [ng/mL] | plasma concentrations [1] [ng/mL]
Cc1ccc2c(C)c3c(c(O)c2c1O)C(=O)[C@@]1(O)C(=O)C(C(N)=O)=C(O)[C@@H](N)[C@H]1C3 [CDCHD, amidochelocardin] | is not a substrate | 1 | 15.0 | – | – | –
CC(=O)C1=C(O)[C@@H](N)[C@H]2Cc3c(c(O)c4c(O)c(C)ccc4c3C)C(=O)[C@@]2(O)C1=O [CHD, chelocardin] | is a substrate | – | – | around 50% | 11000 to 14000 | 1000 to 3000
